Test results from patent US9980943B2, “Methods of treating muscular dystrophy” (BOARD OF REGENTS OF THE NEVADA SYSTEM OF HIGHER EDUCATION, …, priority 2013, dated 2018).
Like-named read-outs stand apart in the source and are kept apart here.

Tests used:
[1] = system: α7 integrin (LacZ reporter in α7LacZ+/− myoblasts); test: qHTS of the LOPAC library and MLSMR (online screen, α7LacZ+/− myoblasts); details: Mus musculus, Myoblast; for activation at 0.307 µM: read-out: Activity at 0.307 uM [%] **; for activation at 1.53 µM: read-out: Activity at 1.530 uM [%] **; for activation at 7.66 µM: read-out: Activity at 7.660 uM [%] **; for activation at 38.3 µM: read-out: Activity at 38.30uM [%] **; for EC50: read-out: Fit LogAC50 (converted)
[2] = system: α7 integrin (LacZ reporter in α7+/LacZ myotubes); test: Myotube α7 integrin FDG assay (Burkin assay in myotubes, 96-well); assay type: cell-based, mouse; details: myotubes
[3] = system: β-galactosidase in CMV-LacZ C2C12 myotubes; test: CMV-LacZ secondary screen in C2C12 myotubes (β-Gal stabilizing assay); assay type: cell-based, mouse; details: C2C12 CMV-LacZ myotubes, fold relative to DMSO
Procedure, shortened: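 Stable CMV-LacZ C2C12 clone; six-point curve 0.5–40 μM; duplicates.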

[4] = system: α7 integrin (LacZ reporter in α7βgal+/− myoblasts); test: Myoblast α7+/LacZ integrin FDG assay (Burkin assay in myoblasts, 96-well); assay type: cell-based, mouse; details: α7+/LacZ myoblasts, 96-well
[5] = 48 h, read-out: Fit Infinite Activity [%]

SMILES	activation at 0.307 µM ([1]; 48 h) [%]	activation at 1.53 µM ([1]; 48 h) [%]	activation at 7.66 µM ([1]; 48 h) [%]	activation at 38.3 µM ([1]; 48 h) [%]	Emax [1, 5] [%]	Emax ([1]; read-out: Max Response [%]) [%]	EC50 [1] [µM]	also measured
O=C(Nc1ccc(N2CCN(C(=O)c3ccccc3F)CC2)cc1)c1cncc(Br)c1 [Compound 144]	8.54	11.1	20.4	103	104	103	–	–
C/C(=N\NC(=O)c1cc(C)oc1C)c1ccc2ccccc2c1 [Compound 149]	-0.126	8.59	37	68	82.4	68	–	–
CNC(=O)/C(=C\c1cccc(Oc2ccccc2)c1)NC(=O)c1ccccc1 [Compound 211]	0.23	11.6	43	87.9	110	87.9	–	–
COc1ccc(O)c(/C=N/NC(=O)c2cc(O)nc3ccccc23)c1 [Compound 179]	-35.4	-32.2	20.9	46.8	48.4	46.8	–	–
CSc1ncccc1C(=O)OCC(=O)c1cc(C)n(C)c1C [Compound 134]	-21	-23.9	-0.0686	72.9	72.9	72.9	10	–
CNc1cc([N+](=O)[O-])ccc1OCc1ccccc1 [Compound 79]	1.52	16.2	57.3	80.2	84.8	80.2	4.47	–
COc1ccc(CCNC(=O)Cn2nnc(C(=O)Nc3ccc(Br)cc3)c2N)cc1OC [Compound 148]	-30	-26.8	12.5	102	110	102	–	–
O=C(Nc1cc(Br)ccc1O)C1CC(c2ccccc2Cl)=NO1 (stereo not drawn) [Compound 108]	2.03	3.14	15.3	141	142	141	12.6	–
C/N=C(\S)N1CCC(NC(=O)C(Cc2ccc(F)cc2)NC(C)=O)CC1 (stereo not drawn) [Compound 82]	0	23.1	63.7	84.7	90	84.7	3.16	–
CCCCCCC1CC(=O)NC(=O)N1 (stereo not drawn) [MLS000768008-01]	–	–	–	–	–	–	–	Burkin Assay in Myotubes, α7 integrin LacZ reporter signal relative to DMSO ([2]; 0.5 uM): 1.073; Burkin Assay in Myotubes, α7 integrin LacZ reporter signal relative to DMSO ([2]; 1 uM): 1.179; Burkin Assay in Myotubes, α7 integrin LacZ reporter signal relative to DMSO ([2]; 5 uM): 1.11; Burkin Assay in Myotubes, α7 integrin LacZ reporter signal relative to DMSO ([2]; 10 uM): 1.273; Burkin Assay in Myotubes, α7 integrin LacZ reporter signal relative to DMSO ([2]; 20 uM): 1.098; Burkin Assay in Myotubes, α7 integrin LacZ reporter signal relative to DMSO ([2]; 40 uM): 1.2867; CMV-LACZ in Myotubes, signal relative to DMSO ([3]; 5 uM): 0.8276; CMV-LACZ in Myotubes, signal relative to DMSO ([3]; 10 uM): 0.9644; CMV-LACZ in Myotubes, signal relative to DMSO ([3]; 20 uM): 1.028; CMV-LACZ in Myotubes, signal relative to DMSO ([3]; 40 uM): 0.9429; Burkin Assay in Myoblasts, signal relative to DMSO ([4]; 0.5 uM): 0.9886; Burkin Assay in Myoblasts, signal relative to DMSO ([4]; 1 uM): 0.9618; Burkin Assay in Myoblasts, signal relative to DMSO ([4]; 5 uM): 0.8976; Burkin Assay in Myoblasts, signal relative to DMSO ([4]; 10 uM): 0.8768; Burkin Assay in Myoblasts, signal relative to DMSO ([4]; 20 uM): 0.7837; Burkin Assay in Myoblasts, signal relative to DMSO ([4]; 40 uM): 0.8787
COc1cccc(NC(=O)c2ccc3c(c2)CCCC3)c1 [MLS000879190-01]	–	–	–	–	–	–	–	fold induction at 0.5 µM ([2]; Mus musculus, Myotube, 0.5 uM, read-out: Burkin Assay in Myotubes (signal relative to DMSO)): 0.965; fold induction at 1 µM ([2]; Mus musculus, Myotube, 1 uM, read-out: Burkin Assay in Myotubes (signal relative to DMSO)): 1.13; fold induction at 5 µM ([2]; Mus musculus, Myotube, 5 uM, read-out: Burkin Assay in Myotubes (signal relative to DMSO)): 1.05; fold induction at 10 µM ([2]; Mus musculus, Myotube, 10 uM, read-out: Burkin Assay in Myotubes (signal relative to DMSO)): 0.913; fold induction at 20 µM ([2]; Mus musculus, Myotube, 20 uM, read-out: Burkin Assay in Myotubes (signal relative to DMSO)): 1.08; fold induction at 40 µM ([2]; Mus musculus, Myotube, 40 uM, read-out: Burkin Assay in Myotubes (signal relative to DMSO)): 0.849; fold induction at 5 µM ([3]; Mus musculus, C2C12, read-out: CMV-LACZ in Myotubes, signal relative to DMSO, 5 uM): 0.991; fold induction at 10 µM ([3]; Mus musculus, C2C12, read-out: CMV-LACZ in Myotubes, signal relative to DMSO, 10 uM): 1.05; fold induction at 20 µM ([3]; Mus musculus, C2C12, read-out: CMV-LACZ in Myotubes, signal relative to DMSO, 20 uM): 0.85; fold induction at 40 µM ([3]; Mus musculus, C2C12, read-out: CMV-LACZ in Myotubes, signal relative to DMSO, 40 uM): 0.463; fold induction at 0.5 µM ([4]; Mus musculus, Myoblast, 48 h, 0.5 uM, read-out: Burkin Assay in Myoblasts, value relative to DMSO): 1.1; fold induction at 1 µM ([4]; Mus musculus, Myoblast, 48 h, 1 uM, read-out: Burkin Assay in Myoblasts, value relative to DMSO): 1.34; fold induction at 5 µM ([4]; Mus musculus, Myoblast, 48 h, 5 uM, read-out: Burkin Assay in Myoblasts, value relative to DMSO): 1.19; fold induction at 10 µM ([4]; Mus musculus, Myoblast, 48 h, 10 uM, read-out: Burkin Assay in Myoblasts, value relative to DMSO): 1.38; fold induction at 20 µM ([4]; Mus musculus, Myoblast, 48 h, 20 uM, read-out: Burkin Assay in Myoblasts, value relative to DMSO): 1.09; fold induction at 40 µM ([4]; Mus musculus, Myoblast, 48 h, 40 uM, read-out: Burkin Assay in Myoblasts, value relative to DMSO): 1.13
